Laboratory results reported in the METLIN SMRT retention time set (Domingo-Almenara et al. 2019).

Assay: gradient 5% acetonitrile 3 min, to 50% in 2 min, to 85% in 15 min, held 3 min, 100 µL/min
Settings: column: Zorbax Extend-C18 2.1 x 50 mm; eluents: water / acetonitrile, 0.1% formic acid
Summary of the method: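 Each retention time is based on an adduct peak selected computationally and verified by manual inspection. Measurements used HPLC–quadrupole time-of-flight mass spectrometry in positive and negative ionization mode on mixtures of ~100 pure standards. Chromatography ran on a Zorbax Extend-C18 column (2.1 × 50 mm, 1.8 μm) at 100 μL/min with water and acetonitrile, each containing 0.1% formic acid, and dead and dwell volumes of 40 μL and 900 μL.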

SMILES | RP-LC retention time [s]
O=C(NCCN1CCCC1)C1CCN(c2nc3cccnc3s2)CC1 | 561
NC(=O)CNC(=O)c1cc2c(s1)N(CC1CC1)CCCC2 | 692
CSc1nc(NC(C)C)c(C#N)c(-c2ccccc2)n1 | 1190
COc1ccccc1NC(=O)C1CCCN1S(=O)(=O)c1cc2c(cc1C)NC(=O)CO2 (stereo unspecified) | 808
CC(=O)c1ccc(NC(=O)COc2cc(C)nc(N3CCCCCC3)n2)cc1 | 642
COc1cc(C(CC(=O)NC2CCCC2)N2Cc3ccccc3C2=O)cc(OC)c1OC (stereo unspecified) | 755
Cc1nc(C)c(C(=O)Nc2nc(-c3ccc(F)cc3)c(C)s2)s1 | 956
COc1cc(OC)c(OC)cc1CN(C)CCc1ccccn1 | 593
CC(=O)NCc1ccc(-c2noc(-c3ccc(N(C)C)cc3)n2)s1 | 861
O=C(Cc1csc2nc(-c3ccccc3)cn12)NC1CCCCCCC1 | 877
CCN1CCN(C(=O)C2CCCN(c3nnc4ccc(C(F)(F)F)cn34)C2)CC1 (stereo unspecified) | 567
CCC1(O)CCOC2(CCN(Cc3ccncc3F)CC2)C1 (stereo unspecified) | 554
CCN1CCCn2nc(C3CCN(C(=O)COc4ccccc4)CC3)cc2C1=O | 678
Cc1nc(Nc2ccccc2)sc1C(=O)Nc1cccc(F)c1 | 998
COc1cccc(Cn2c(C)c(CNCc3ccc(C)o3)c(C(=O)O)c2C)c1 | 715
O=C(Nc1ccc(Oc2ccc(NC(=O)Nc3ccccc3Cl)cc2)cc1)Nc1ccccc1Cl | 1250
Cc1ccc(S(=O)(=O)N2CCC(C3CCNC3)CC2)cc1F (stereo unspecified) | 651
O=C([C@H]1C[C@@H](F)CN1C(=O)Nc1cccc(Cl)c1)N1CCOCC1 | 653
CC(C)NC(=O)N1CC(c2nc(-c3ccc(F)cc3)no2)C2(CCOCC2)C1 (stereo unspecified) | 815
COc1ccc(C(C)NC(=O)c2cn3cc(C)ccc3n2)cc1 (stereo unspecified) | 671
COc1cc(C(=O)N2CCCN(c3cc(-c4ccc(Br)cc4)[nH]n3)CC2)cc(OC)c1OC | 768
CC(=O)Nc1cc(C(=O)NC2CCCC2)c2ccc(C)nc2c1 | 600
O=C(NCc1cccs1)C1CCCN(C(=O)C2Sc3ccccc3NC2=O)C1 (stereo unspecified) | 725
CCNC(=O)c1nc(C(=O)NC(C)c2ccc(C)cc2)cs1 (stereo unspecified) | 843
Cc1noc2ncnc(N3CCCC(C(=O)N4CCCc5ccccc54)C3)c12 (stereo unspecified) | 878
COCCNC(=O)NCC1(c2ccccc2)CCOCC1 | 615
CCc1noc(-c2cnc3nc(C)ccc3c2Nc2ccc3c(c2)OCO3)n1 | 720

The remaining lines, values ahead:

RP-LC retention time [s] | SMILES
752 | O=C(C1CC(=O)N(c2n[nH]c3cccc(F)c23)C1)N1CCc2ccccc2C1 (stereo unspecified)
870 | Cc1ccc2nc(-c3ccc(NS(=O)(=O)c4cn(C)c(=O)n(C)c4=O)cc3)sc2c1
757 | COCCN(CC(=O)N1CCc2sccc2C1COc1ccccc1OC)C(C)=O (stereo unspecified)
877 | Cc1ccc(Cl)cc1N1CCN(C(=O)c2ccc(Cn3cncn3)cc2)CC1
1210 | Cc1ccc(-c2csc(NC(=O)Cc3csc(-c4ccccc4)n3)n2)cc1
727 | O=C(Cn1nc2c3ccccc3ncn2c1=O)Nc1ccc(Cl)cc1
642 | CCOC(=O)c1c(C)oc2nc(C)nc(N3CCN(c4ccc(C(C)=O)cc4)CC3)c12
750 | O=C(c1ccccc1)N1CCC(C(=O)N2CCc3ccccc32)CC1
935 | CCOc1ccccc1NC(=O)N1CCC(n2cnc3cc(Cl)ccc3c2=O)CC1
1000 | Cc1c(Cl)cccc1-n1ccnc(NC(=O)Nc2ccc(F)cc2)c1=O
785 | COc1cccc(C(=O)Nc2ccc3c(c2)Sc2ncccc2C(=O)N3C)c1
781 | Cc1ccc(CCNC(=O)C2CCN(S(=O)(=O)c3ccc4c(c3)CCCC(=O)N4)CC2)cc1
1030 | CCOc1ccccc1CNC(=O)C1CCN(c2nc(CC)nc3csc(C)c23)CC1
1100 | CCCn1cc(C2=CCN(S(=O)(=O)Cc3ccc(Cl)cc3)CC2)c2cccnc21
603 | O=C(Cc1ccc(Cl)cc1)N1CCN(c2ccc(Nc3ccccn3)nn2)CC1
967 | O=C(Cn1cnc2c(-c3ccc(F)cc3)csc2c1=O)Nc1cc(F)ccc1F
747 | COCc1nc2cccnc2n1C1CCN(C(=O)Nc2cc(C)cc(C)c2)CC1
923 | COc1ccc(CC(=O)Nc2cc3c(cc2SC(C)C)n(C)c(=O)n3C)cc1
672 | CN(C)c1ccc(CNC(=O)C2(c3ccc(NS(C)(=O)=O)cc3)CCCCC2)cc1
877 | O=C(NCCCc1ccccc1)c1ccc2c(c1)CCN2C(=O)C1CC1

RP-LC retention time [s] | SMILES
948 | CCOc1ccccc1NC(=O)CSc1nnc2c3cc(-c4ccc(F)cc4)nn3ccn12
746 | CCCC(=O)Nc1ccc2nc(N3CCN(c4cc(Cl)ccc4C)CC3)cc(C(=O)O)c2c1
799 | Cc1ccc2ncn(C3CCN(C(=O)Nc4ccc(C)c(C)c4)CC3)c(=O)c2c1
915 | Fc1ccc(Cc2nc3nccc(-c4cccs4)n3n2)cc1
829 | CC(C(=O)NCCc1c[nH]c2ccccc12)n1c2ccccc2c2cnn(C)c(=O)c21 (stereo unspecified)
662 | COc1ccc(-c2nc3ccccn3c2NC(=O)c2ccc([N+](=O)[O-])cc2)cc1
608 | Cc1cc(Cl)ccc1S(=O)(=O)N1CCN(C2CCN(Cc3ccccn3)C2=O)CC1 (stereo unspecified)
955 | COc1ccc(-c2nnc(-c3ccccc3)o2)cc1S(=O)(=O)N1CCSCC1
993 | CN1C(=O)C2CCCCN2c2ccc(C(=O)NCCC3=CCCCC3)cc21 (stereo unspecified)
849 | Cc1cccc(NC(=O)Cn2nc(N(C)C)c3ccccc3c2=O)c1C
694 | O=C(Nc1cnc(N2CCN(CCOc3ccc(Cl)cc3)CC2)c(C(=O)O)c1)c1ccc(F)cc1
894 | Cc1ccc(NC(=O)CN2C(=O)CC(C)S(=O)(=O)c3ccccc32)cc1Cl (stereo unspecified)
675 | CN(Cc1ccccc1)c1ncc(C(=O)O)c(-c2ccncc2)n1
556 | Cc1cc(N2CCN(C)CC2)nc2ccc(NC(=O)NCc3ccc(F)cc3)cc12
876 | CC(=O)Nc1ccc(Br)cc1C(=O)C(=O)NCCc1c[nH]c2ccccc12
624 | CCn1c(C(=O)NCCN2CCCC2)c(N2CCCC2=O)c2cc(OC)ccc21
1180 | COc1ccc2c(c1)-c1nc(NC(=O)c3ccc(Cl)cc3)sc1CC2
1100 | Cc1ccc(CNC(=O)Cn2nc(N3CCCCCC3)c3ccccc3c2=O)cc1
937 | CCCc1noc(-c2ccc3nnc(CC(=O)Nc4ccc(Cl)cc4)n3c2)n1
